Measurements as given in US20030022820A1, “IN VIVO ACTIVATION OF TUMOR-SPECIFIC CYTOTOXIC T CELLS” (priority 1995, published 2003).

Biological target: A2.1/K^b on EA2 target cells (UniProt P01901+P04439, D140Y/D185E/D98H/E176V/G131W/I119V/I121R/I166T/N151K/N90K/Q86G/Q94H/R138H/R169H)
Format: binding, chimeric human-mouse

ILKEPVHGV [HIV-1 RT: 476-484, reference compound]
binding to A2.1/K^b (percent specific lysis of EA2/K^b targets, FIG. 1), in words: efficiently bound to A2.1/K^b

ILLVVVLGV [Peptide H9]
inhibition of binding of the influenza A-derived peptide to A2.1/K^b (FIG. 5), in words: highest efficiency
